≈ marks a conversion by molar mass, not a printed value. Each block holds one molecule with its values, some of them ahead of it.
Key:
EGFR (human) [1] = target: EGFR (human) (UniProt P00533); details: a2780ddp
EGFR (human) [2] = target: EGFR (human) (UniProt P00533); details: sk-br-3
EGFR (human) [3] = target: EGFR (human) (UniProt P00533); details: a2780
EGFR (human) [4] = target: EGFR (human) (UniProt P00533); details: 3t3
EGFR (human) [5] = target: EGFR (human) (UniProt P00533); details: mda435
EGFR (human) [6] = target: EGFR (human) (UniProt P00533); details: a431
EGFR = EGFR (UniProt P00533)
EGFR, sequence (P00533 whole entry, looked up): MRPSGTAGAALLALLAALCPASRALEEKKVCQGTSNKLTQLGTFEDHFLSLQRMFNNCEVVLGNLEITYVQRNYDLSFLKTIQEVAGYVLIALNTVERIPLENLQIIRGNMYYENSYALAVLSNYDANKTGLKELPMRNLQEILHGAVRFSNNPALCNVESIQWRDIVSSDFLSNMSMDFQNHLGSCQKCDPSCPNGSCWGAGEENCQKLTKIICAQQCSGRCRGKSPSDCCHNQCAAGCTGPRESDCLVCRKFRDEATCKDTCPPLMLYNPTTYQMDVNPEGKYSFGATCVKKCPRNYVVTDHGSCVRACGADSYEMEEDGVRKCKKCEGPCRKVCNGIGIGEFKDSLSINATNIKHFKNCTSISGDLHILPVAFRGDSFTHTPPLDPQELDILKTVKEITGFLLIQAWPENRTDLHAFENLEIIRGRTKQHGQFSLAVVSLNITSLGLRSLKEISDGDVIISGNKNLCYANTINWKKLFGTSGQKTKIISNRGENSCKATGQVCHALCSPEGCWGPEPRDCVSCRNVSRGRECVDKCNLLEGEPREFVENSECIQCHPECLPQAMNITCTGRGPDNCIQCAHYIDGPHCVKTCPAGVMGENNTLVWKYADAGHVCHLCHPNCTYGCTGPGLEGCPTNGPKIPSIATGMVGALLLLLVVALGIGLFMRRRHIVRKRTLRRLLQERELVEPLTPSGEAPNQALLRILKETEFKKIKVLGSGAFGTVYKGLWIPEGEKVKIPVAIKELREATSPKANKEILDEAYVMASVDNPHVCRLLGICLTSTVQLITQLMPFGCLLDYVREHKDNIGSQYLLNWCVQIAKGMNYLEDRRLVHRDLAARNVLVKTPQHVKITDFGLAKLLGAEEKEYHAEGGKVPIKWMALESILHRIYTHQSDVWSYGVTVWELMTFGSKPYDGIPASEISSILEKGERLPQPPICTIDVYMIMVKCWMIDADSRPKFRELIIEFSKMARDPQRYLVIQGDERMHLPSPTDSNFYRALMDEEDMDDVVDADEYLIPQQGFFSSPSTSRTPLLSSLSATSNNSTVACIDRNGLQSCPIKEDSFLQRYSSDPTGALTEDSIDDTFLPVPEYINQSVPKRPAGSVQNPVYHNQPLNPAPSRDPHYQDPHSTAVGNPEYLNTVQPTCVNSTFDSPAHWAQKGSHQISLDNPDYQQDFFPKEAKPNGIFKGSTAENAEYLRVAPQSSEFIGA

EGFR (human), sequence (P00533 whole entry, looked up): as above

IC50 (EGFR (human) [3]): 0.06 µg/mL (≈ 0.148 µM)
Structure (SMILES): CC#CC(=O)Nc1cc2c(Nc3cccc(Br)c3)c(C#N)cnc2cn1

IC50 (EGFR (human) [4]): 0.272 to 0.373 µg/mL (≈ 0.602 to 0.826 µM)
Structure (SMILES): CN(C)C/C=C/C(=O)Nc1cc2c(Nc3cccc(Br)c3)c(C#N)cnc2cn1

IC50 (EGFR): 800 nM
Structure (SMILES): CN(C)C/C=C/C(=O)Nc1cnc2ncc(C#N)c(Nc3cccc(Br)c3)c2c1

Further lines, the molecule ahead of its results:

Structure (SMILES): N#Cc1cnc2cnc(NCCN3CCOCC3)cc2c1Nc1cccc(Br)c1
IC50 (EGFR (human) [1]): 0.8 µg/mL (≈ 1.76 µM)
IC50 (EGFR (human) [2]): 0.4 µg/mL (≈ 0.882 µM)

Structure (SMILES): CNc1cc2c(Nc3cccc(Br)c3)c(C#N)cnc2cn1
IC50 (EGFR (human) [5]): 0.98 to 3.94 µg/mL (≈ 2.77 to 11.1 µM)
IC50 (EGFR (human) [6]): 0.209 to 0.31 µg/mL (≈ 0.59 to 0.875 µM)
IC50 (EGFR (human) [1]): 0.43 to 2.25 µg/mL (≈ 1.21 to 6.34 µM)
IC50 (EGFR (human) [3]): 0.74 to 2.36 µg/mL (≈ 2.09 to 6.67 µM)

Structure (SMILES): CCOc1ccc2ncc(C#N)c(Nc3cccc(Br)c3)c2n1
IC50 (EGFR): > 10000 nM

Structure (SMILES): COc1ccc(CNc2cc3c(Nc4cccc(Br)c4)c(C#N)cnc3cn2)cc1
IC50 (EGFR): > 100 nM

— the Kinase Knowledgebase extract (Sharma et al. 2016)
